From ChEMBL document CHEMBL4219115, “Synthesis and evaluation of 4',5'-dihydrospiro[piperidine-4,7'-thieno[2,3-c]pyran] analogues against both active and dormant Mycobacterium tuberculosis” (Bioorg Med Chem, 2018)
In brackets after ≈: the same amount, converted by molar mass.

Assays:
[1] = tested on: Mycobacterium tuberculosis; test: Antimycobacterial activity against Mycobacterium tuberculosis H37Rv measured after 6 days by resazurin assay; type: functional; conditions: 144 h
[2] = tested on: Mycobacterium tuberculosis; test: Antimycobacterial activity against active form of Mycobacterium tuberculosis H37Rv measured after 7 days by alamar blue assay; type: functional; conditions: 168 h
[3] = tested on: Mycobacterium tuberculosis; test: Antimycobacterial activity against nutrient starved dormant form of Mycobacterium tuberculosis H37Rv assessed as log reduction in bacterial count at 10 ug/ml measured after 7 days by […] relative to control; type: functional
[4] = biological target: T1, L-lysine-epsilon aminotransferase (Mycobacterium tuberculosis, UniProt P9WQ77); test: Inhibition of Mycobacterium tuberculosis LAT using L-lysine and alpha-ketoglutaric acid as substrate by spectrophotometric analysis
T1 sequence (P9WQ77 whole entry): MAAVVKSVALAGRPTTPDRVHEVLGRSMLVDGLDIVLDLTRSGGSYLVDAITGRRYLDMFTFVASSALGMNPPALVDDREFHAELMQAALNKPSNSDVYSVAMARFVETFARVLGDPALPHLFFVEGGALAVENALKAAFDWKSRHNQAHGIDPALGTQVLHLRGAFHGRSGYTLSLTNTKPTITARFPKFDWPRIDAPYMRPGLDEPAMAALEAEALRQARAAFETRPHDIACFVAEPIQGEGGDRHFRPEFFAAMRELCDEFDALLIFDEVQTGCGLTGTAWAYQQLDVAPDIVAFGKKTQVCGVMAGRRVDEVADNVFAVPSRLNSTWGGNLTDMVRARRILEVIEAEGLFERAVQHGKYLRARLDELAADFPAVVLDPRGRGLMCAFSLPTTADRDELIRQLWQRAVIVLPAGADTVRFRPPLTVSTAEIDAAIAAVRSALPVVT

RAW264.7 = test: Cytotoxicity against mouse RAW264.7 cells assessed as reduction in cell viability at 50 ug/ml after 48 hrs by MTT assay; type: cell-based; conditions: raw264.7, 48 h

| Compound | MIC [2] [µM] | Activity (RAW264.7) [%] | other results |
| --- | --- | --- | --- |
| c1cc2c(s1)CCOC21CCN(Cc2ccc3c(c2)OCCO3)CC1 |  |  | MIC [1]: 0.38 µM (≈ 0.136 µg/mL) |
| c1ccc(CN2CCC3(CC2)OCCc2ccsc23)cc1 | 83.5 (≈ 25 µg/mL) |  |  |
| O=C(c1ccccc1)N1CCC2(CC1)OCCc1ccsc12 | 79.8 (≈ 25 µg/mL) |  |  |
| COc1ccc(S(=O)(=O)N2CCC3(CC2)OCCc2ccsc23)cc1 | 8.23 (≈ 3.12 µg/mL) | 12.32 | log(activity) [3]: 2.8; IC50 [4]: 1.04 µM |
| Clc1ccc(CN2CCC3(CC2)OCCc2ccsc23)c(Cl)c1 | 33.9 (≈ 12.5 µg/mL) |  |  |
| Cc1ccc(S(=O)(=O)N2CCC3(CC2)OCCc2ccsc23)cc1 | 8.59 (≈ 3.12 µg/mL) | 22.16 |  |
| Fc1ccc(CN2CCC3(CC2)OCCc2ccsc23)c(F)c1 | 37.3 (≈ 12.5 µg/mL) |  |  |
| O=S(=O)(c1ccc(Cl)cc1Cl)N1CCC2(CC1)OCCc1ccsc12 | 29.9 (≈ 12.5 µg/mL) |  |  |
| O=S(=O)(c1ccc(F)cc1)N1CCC2(CC1)OCCc1ccsc12 | 34 (≈ 12.5 µg/mL) |  |  |
| COc1ccc(C(=O)N2CCC3(CC2)OCCc2ccsc23)cc1 | 9.09 (≈ 3.12 µg/mL) | 14.59 |  |
| Cc1ccc(C(=O)N2CCC3(CC2)OCCc2ccsc23)cc1 | 19.1 (≈ 6.25 µg/mL) | 23.16 |  |
| O=C(c1ccc(F)cc1)N1CCC2(CC1)OCCc1ccsc12 | 18.9 (≈ 6.25 µg/mL) | 18.98 |  |
| O=S(=O)(c1ccc(Cl)cc1)N1CCC2(CC1)OCCc1ccsc12 | 65.1 (≈ 25 µg/mL) |  |  |
| Cc1ccc(CN2CCC3(CC2)OCCc2ccsc23)cc1 | 79.8 (≈ 25 µg/mL) |  |  |
| Clc1ccc(CN2CCC3(CC2)OCCc2ccsc23)cc1 | 9.35 (≈ 3.12 µg/mL) | 26.54 | log(activity) [3]: 2.4; IC50 [4]: 6.83 µM |
| Fc1ccc(CN2CCC3(CC2)OCCc2ccsc23)cc1 | 19.7 (≈ 6.25 µg/mL) | 21.67 |  |
| O=C(c1ccc(F)cc1F)N1CCC2(CC1)OCCc1ccsc12 | 8.94 (≈ 3.12 µg/mL) | 34.06 | log(activity) [3]: 2.7; IC50 [4]: 3.48 µM |
| COc1ccc(CN2CCC3(CC2)OCCc2ccsc23)cc1 | 23.1 (≈ 7.62 µg/mL) |  |  |
| O=S(=O)(c1ccccc1)N1CCC2(CC1)OCCc1ccsc12 | 71.5 (≈ 25 µg/mL) |  |  |
| O=C(c1ccc(Cl)cc1)N1CCC2(CC1)OCCc1ccsc12 | 71.9 (≈ 25 µg/mL) |  |  |
| O=S(=O)(c1ccc(F)cc1F)N1CCC2(CC1)OCCc1ccsc12 | 16.2 (≈ 6.25 µg/mL) | 31.08 |  |
| O=C(c1ccc(Cl)cc1Cl)N1CCC2(CC1)OCCc1ccsc12 | 32.7 (≈ 12.5 µg/mL) |  |  |
| CC[C@@H](CO)NCCN[C@@H](CC)CO [ETHAMBUTOL] | 9.84 (≈ 2.01 µg/mL) |  |  |
| NNC(=O)c1ccncc1 [ISONIAZID] | 0.66 (≈ 0.0905 µg/mL) |  | log(activity) [3]: 1.7 |
| CC1COc2c(N3CCN(C)CC3)c(F)cc3c(=O)c(C(=O)O)cn1c23 (configuration not stated) [OFLOXACIN] | 2.16 (≈ 0.781 µg/mL) |  |  |
| CO[C@H]1/C=C/O[C@@]2(C)Oc3c(C)c(O)c4c(O)c(c(/C=N/N5CCN(C)CC5)c(O)c4c3C2=O)NC(=O)/C(C)=C\C=C\[C@H](C)[C@H](O)[C@@H](C)[C@@H](O)[C@@H](C)[C@H](OC(C)=O)[C@@H]1C [RIFAMPIN] |  |  | log(activity) [3]: 2 |
